This is an account of results in publication PMC11110727, “Exploiting thiol-functionalized benzosiloxaboroles for achieving diverse substitution patterns – synthesis, characterization and biological evaluation of promising antibacterial agents” (RSC Medicinal Chemistry, 2024).

The target in this assay is T1, S. aureus MRSA LeuRS (Staphylococcus aureus, UniProt P67513).
T1 construct: The LeuRS gene from MRSA (PW-71) was amplified by PCR; made in house; host or cells: E. coli BL21(DE3)pLys
The experiment in a line: In vitro aminoacylation (enzyme inhibition) assay. It counts as biochemical. On the procedure:
We have undertaken research devoted to determining the most probable mechanism of antibacterial action. […] Considering structural similarity to benzoxaboroles we assumed that benzosiloxaboroles are active through this mechanism. Our working hypothesis was supported by the fact that benzosiloxaboroles are rather bacteriostatic than bactericidal,[26,27] which is consistent with the specificity of the OBORT mechanism. The enzyme inhibition assay was performed for compound 20 as it features high activity against S. aureus MRSA strains and the respective favorable SI = 19.5 (Table 5). […] We obtained S. aureus MRSA LeuRS in the E. coli expression system. From 400 mL culture, approximately 20 mg of 6× His tagged LeuRS (with a molecular mass of 92.3 kDa) was purified to more than 90% homogeneity, which was confirmed by sodium dodecylsulfate-polyacrylamide gel electrophoresis (SDS-PAGE; Fig. S2, ESI ^†). Next, we used an in vitro aminoacylation assay to investigate the ability of 20 to inhibit S. aureus MRSA LeuRS activity consistent with affecting the transfer of the ^14C-radiolabeled leucine to a total tRNA. […] (residual activity 30.8% at 25 μM).
The LeuRS gene from MRSA (PW-71) was amplified by PCR using the following primers: 5′-[…]-3′ and 5′-[…]-3′. The amplified leuRS was digested with BamHI and NotI and ligated into pETDuet-1 vector (Novagen) which carries an N-terminal His tag. After sequencing, the pETDuet1-leuRS plasmid was transformed into E. coli BL21(DE3)pLys cells, which were then grown overnight in 20 mL of Luria–Bertani (LB) medium containing 100 μg mL^−1 ampicillin and 30 μg mL^−1 chloramphenicol. Then the overnight culture was inoculated into 400 mL of Super Broth medium containing ampicillin and chloramphenicol at the same concentration, and the cells were grown until the OD600 reached 0.6. […] The protein concentration in the final solution was 2.86 mg mL^−1 (determined by the Bradford method and bovine serum albumin as a standard).[78] […]

T1 sequence (P67513 whole entry): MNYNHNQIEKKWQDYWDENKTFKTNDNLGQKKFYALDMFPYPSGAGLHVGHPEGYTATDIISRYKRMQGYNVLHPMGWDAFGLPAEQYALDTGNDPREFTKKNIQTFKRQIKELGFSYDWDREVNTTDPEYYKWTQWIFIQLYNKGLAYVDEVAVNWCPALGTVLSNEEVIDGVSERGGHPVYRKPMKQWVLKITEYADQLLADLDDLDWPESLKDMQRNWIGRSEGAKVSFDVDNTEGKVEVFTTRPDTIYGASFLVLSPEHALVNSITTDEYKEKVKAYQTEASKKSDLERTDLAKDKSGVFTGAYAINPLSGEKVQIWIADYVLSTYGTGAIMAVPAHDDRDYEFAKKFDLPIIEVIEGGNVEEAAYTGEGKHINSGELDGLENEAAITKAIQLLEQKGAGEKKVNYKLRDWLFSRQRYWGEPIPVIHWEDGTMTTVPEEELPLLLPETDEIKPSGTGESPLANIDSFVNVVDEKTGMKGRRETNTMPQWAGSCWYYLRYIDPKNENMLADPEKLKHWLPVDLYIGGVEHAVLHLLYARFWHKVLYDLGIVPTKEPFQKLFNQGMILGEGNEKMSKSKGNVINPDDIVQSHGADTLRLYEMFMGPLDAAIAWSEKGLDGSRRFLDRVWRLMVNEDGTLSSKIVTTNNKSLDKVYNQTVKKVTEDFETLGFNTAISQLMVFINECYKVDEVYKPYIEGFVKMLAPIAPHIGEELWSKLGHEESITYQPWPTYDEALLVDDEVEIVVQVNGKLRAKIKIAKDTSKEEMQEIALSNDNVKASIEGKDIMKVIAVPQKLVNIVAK

The compound `C[Si]1(C)OB(O)c2cc(F)c(SCCS(=O)(=O)c3ccccc3)c(F)c21` [Compound 20, 5,7-Difluoro-1,1-dimethyl-6-((2-(phenylsulfonyl)ethyl)thio)benzo[c][1,2,5]oxasilaborol-3(1H)-ol] came in with an IC50 greater than 200 µM. The remaining activity at 25 µM (read-out: residual activity of S. aureus MRSA LeuRS) worked out at 92.9%.

Broadly, the IC50 is the midpoint of a concentration-inhibition curve.
